In the NIST ThermoML archive (doi:10.1016/j.jct.2012.03.031):

Test: molar heat capacity at constant pressure
Settings: 101.33 kPa

CCCCc1ccc(C(=O)Oc2ccc(C#N)c(F)c2)cc1 [4-cyano-3-fluorophenyl 4-butylbenzoate]
Settings	molar heat capacity at constant pressure [J/K/mol]
182.62 K, Crystal 1, Small (less than 1 g) adiabatic calorimetry	248.29
182.95 K, Crystal 1, Small (less than 1 g) adiabatic calorimetry	248.51
183.94 K, Crystal 1, Small (less than 1 g) adiabatic calorimetry	249.95
184.27 K, Crystal 2, Small (less than 1 g) adiabatic calorimetry	270.08
185.26 K, Crystal 1, Small (less than 1 g) adiabatic calorimetry	251.54
185.59 K, Crystal 1, Small (less than 1 g) adiabatic calorimetry	251.57
186.58 K, Crystal 1, Small (less than 1 g) adiabatic calorimetry	253
186.82 K, Crystal 2, Small (less than 1 g) adiabatic calorimetry	273.41
187.89 K, Crystal 1, Small (less than 1 g) adiabatic calorimetry	254.44
188.25 K, Crystal 1, Small (less than 1 g) adiabatic calorimetry	254.7
189.2 K, Crystal 1, Small (less than 1 g) adiabatic calorimetry	256.01
189.37 K, Crystal 2, Small (less than 1 g) adiabatic calorimetry	276.6
190 K, Crystal 1, Vacuum adiabatic calorimetry	256.78
190 K, Crystal 2, Vacuum adiabatic calorimetry	277.35
190.5 K, Crystal 1, Small (less than 1 g) adiabatic calorimetry	257.62
190.92 K, Crystal 1, Small (less than 1 g) adiabatic calorimetry	257.87
191.8 K, Crystal 1, Small (less than 1 g) adiabatic calorimetry	259.15
191.94 K, Crystal 2, Small (less than 1 g) adiabatic calorimetry	279.67
193.09 K, Crystal 1, Small (less than 1 g) adiabatic calorimetry	260.81
193.6 K, Crystal 1, Small (less than 1 g) adiabatic calorimetry	261.01
194.38 K, Crystal 1, Small (less than 1 g) adiabatic calorimetry	262.19
194.52 K, Crystal 2, Small (less than 1 g) adiabatic calorimetry	282.72
195.67 K, Crystal 1, Small (less than 1 g) adiabatic calorimetry	263.76
196.29 K, Crystal 1, Small (less than 1 g) adiabatic calorimetry	264.21
196.94 K, Crystal 1, Small (less than 1 g) adiabatic calorimetry	265.24
197.12 K, Crystal 2, Small (less than 1 g) adiabatic calorimetry	285.61
198.22 K, Crystal 1, Small (less than 1 g) adiabatic calorimetry	266.88
199 K, Crystal 1, Small (less than 1 g) adiabatic calorimetry	267.79
199.49 K, Crystal 1, Small (less than 1 g) adiabatic calorimetry	268.59
199.73 K, Crystal 2, Small (less than 1 g) adiabatic calorimetry	288.75
200 K, Crystal 1, Vacuum adiabatic calorimetry	269.03
200 K, Crystal 2, Vacuum adiabatic calorimetry	289.06
200.76 K, Crystal 1, Small (less than 1 g) adiabatic calorimetry	270.11
201.72 K, Crystal 1, Small (less than 1 g) adiabatic calorimetry	271.16
202.02 K, Crystal 1, Small (less than 1 g) adiabatic calorimetry	271.81
202.35 K, Crystal 2, Small (less than 1 g) adiabatic calorimetry	291.75
203.27 K, Crystal 1, Small (less than 1 g) adiabatic calorimetry	273.36
204.44 K, Crystal 1, Small (less than 1 g) adiabatic calorimetry	274.73
204.53 K, Crystal 1, Small (less than 1 g) adiabatic calorimetry	275.01
204.98 K, Crystal 2, Small (less than 1 g) adiabatic calorimetry	294.58
205.77 K, Crystal 1, Small (less than 1 g) adiabatic calorimetry	276.69
207.02 K, Crystal 1, Small (less than 1 g) adiabatic calorimetry	278.34
207.18 K, Crystal 1, Small (less than 1 g) adiabatic calorimetry	278.39
207.63 K, Crystal 2, Small (less than 1 g) adiabatic calorimetry	297.45
208.26 K, Crystal 1, Small (less than 1 g) adiabatic calorimetry	279.95
209.49 K, Crystal 1, Small (less than 1 g) adiabatic calorimetry	281.68
209.93 K, Crystal 1, Small (less than 1 g) adiabatic calorimetry	282.11
210 K, Crystal 1, Vacuum adiabatic calorimetry	282.2
210 K, Crystal 2, Vacuum adiabatic calorimetry	300.06
210.29 K, Crystal 2, Small (less than 1 g) adiabatic calorimetry	300.38
210.72 K, Crystal 1, Small (less than 1 g) adiabatic calorimetry	283.2
211.95 K, Crystal 1, Small (less than 1 g) adiabatic calorimetry	284.9
212.69 K, Crystal 1, Small (less than 1 g) adiabatic calorimetry	285.7
212.97 K, Crystal 2, Small (less than 1 g) adiabatic calorimetry	303.2
213.18 K, Crystal 1, Small (less than 1 g) adiabatic calorimetry	286.42
214.4 K, Crystal 1, Small (less than 1 g) adiabatic calorimetry	288
215.46 K, Crystal 1, Small (less than 1 g) adiabatic calorimetry	289.41
215.62 K, Crystal 1, Small (less than 1 g) adiabatic calorimetry	289.65
215.65 K, Crystal 2, Small (less than 1 g) adiabatic calorimetry	306.03
216.83 K, Crystal 1, Small (less than 1 g) adiabatic calorimetry	291.26
218.04 K, Crystal 1, Small (less than 1 g) adiabatic calorimetry	292.84
218.24 K, Crystal 1, Small (less than 1 g) adiabatic calorimetry	293.08
218.35 K, Crystal 2, Small (less than 1 g) adiabatic calorimetry	308.99
219.24 K, Crystal 1, Small (less than 1 g) adiabatic calorimetry	294.47
220 K, Crystal 1, Vacuum adiabatic calorimetry	295.42
220 K, Crystal 2, Vacuum adiabatic calorimetry	310.55
220.45 K, Crystal 1, Small (less than 1 g) adiabatic calorimetry	296.21
221.03 K, Crystal 1, Small (less than 1 g) adiabatic calorimetry	296.79
